Data reported in patent publication US20090227600A1, “4-(PYRAZINE-2-YL) -PYRROLIDINE -2-CARBOXYLIC ACID COMPOUNDS AND DERIVATIVES THEREOF AS HEPATITIS C VIRUS INHIBITORS” (priority 2004, published 2009).

What follows are compounds tested against T1, HCV RNA Polymerase, recombinant NS5B with C-terminal 21 amino acid deletion, genotype 1a strain H77 (Hepatitis C virus genotype 1a, UniProt P27958) (assay: In vitro HCV RNA-dependent RNA polymerase inhibition assay, genotype 1a C-terminally truncated (delta21) enzyme). Conditions: genotype 1a delta21 NS5B enzyme; read-out: IC50 in delta-21 1a enzyme inhibition assay.
T1 construct: fused on or other part: C-terminal 6His-tag
T1 sequence (P27958 2421-3011 V2599I, form open): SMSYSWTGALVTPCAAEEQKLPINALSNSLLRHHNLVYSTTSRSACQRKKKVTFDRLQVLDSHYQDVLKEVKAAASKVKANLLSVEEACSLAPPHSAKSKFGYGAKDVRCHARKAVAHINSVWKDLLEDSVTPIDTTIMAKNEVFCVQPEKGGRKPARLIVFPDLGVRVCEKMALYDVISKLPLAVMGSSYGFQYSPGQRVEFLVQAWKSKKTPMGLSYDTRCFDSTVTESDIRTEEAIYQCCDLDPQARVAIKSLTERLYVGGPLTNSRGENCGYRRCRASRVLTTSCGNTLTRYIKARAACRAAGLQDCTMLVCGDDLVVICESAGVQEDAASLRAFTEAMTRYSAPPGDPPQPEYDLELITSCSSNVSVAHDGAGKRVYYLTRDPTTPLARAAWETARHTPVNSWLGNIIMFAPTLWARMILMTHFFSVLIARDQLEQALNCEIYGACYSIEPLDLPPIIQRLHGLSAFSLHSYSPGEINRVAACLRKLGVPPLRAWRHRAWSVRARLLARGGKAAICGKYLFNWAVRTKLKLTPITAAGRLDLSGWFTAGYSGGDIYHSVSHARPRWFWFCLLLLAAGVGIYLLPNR
Assay type: biochemical, HCV genotype 1a
From the text: Incorporation of [^33P]-GMP into RNA was followed by absorption of the biotin labelled RNA polymer by streptavidin containing SPA beads. A synthetic template consisting of biotinylated 13mer-oligoG hybridised to polyrC was used as a homopolymer substrate.
a) Genotype 1a C-Terminally Truncated (delta21) Enzyme
HCV RNA Polymerase [Recombinant NS5B with C-terminal 21 amino acid deletion and C-terminal 6His-tag (Ferrari et al. J. Virol, 73(2), 1999, 1649. ‘Characterization of soluble hepatitis C virus RNA-dependent RNA polymerase expressed in Escherichia coli.’) expressed in E. coli and purified to homogeneity] was added to 25 nM final concentration. Polymerase of genotype 1a was from strain H77 (Yanagi, M., Purcell, R. H., Emerson, S. U. & Bukh, J. (1997), Proceedings of the National Academy of Sciences, USA 94, 8738-8743) containing a sequence change from valine to isoleucine at position 180.
Reaction Conditions were 25 nM enzyme, 1.5 μg/ml oligo-rG13/poly-rC and 0.2 μCi α-^33P-GTP in 0.5 μM GTP (20 Ci/mMol), 20 mM Tris pH 7.5, 23 mM NaCl, 3 mM DTT, 5 mM MgCl2, 1 mM MnCl2.
Enzyme was diluted to 500 nM concentration in 20 mM Tris-HCl, pH 7.5, 25 mM NaCl and 3 mM DTT.
4× concentrated assay buffer mix was prepared using 1M Tris-HCl, pH7.5 (1 mL), 5M NaCl (0.25 mL), 1M DTT (0.12 mL) and Water (8.63 mL), Total 10 mL.
2× concentrated first reagent was prepared using 4× concentrated assay buffer mix (5 μL), 40 u/μL RNasin (0.1 μL), 20 μg/mL polyrC/biotinylated-oligoG (1.6 μL), 500 nM enzyme (1 μL) and Water (2.3 μL), Total 10 μl/well.
2× concentrated second reagent was prepared using 1M MgCl2 (0.1 μL), 1M MnCl2 (0.02 μL), 25 μM GTP (0.4 μL), α-[^33P]-GTP (10 μCi/μL, 0.02 μL) and water (9.5 μL), Total 10 μL/well.
The assay was set up using compound (1 μL in 100% DMSO), first reagent (10 μL), and second reagent (10 μL), Total 21 μL.
The reaction was performed in a U-bottomed, white, 96-well plate. The reaction was mixed on a plate-shaker, after addition of the Enzyme, and incubated for 1 h at 22° C. After this time, the reaction was stopped by addition of 60 μL 1.5 mg/ml streptavidin SPA beads (Amersham) in 0.1 M EDTA in PBS. The beads were incubated with the reaction mixture for 1 h at 22° C. after which 100 μL 0.1 M EDTA in PBS was added. The plate was sealed, mixed centrifuged and incorporated radioactivity determined by counting in a Trilux (Wallac) or Topcount (Packard) Scintillation Counter.
After subtraction of background levels without enzyme, any reduction in the amount of radioactivity incorporated in the presence of a compound, compared to that in the absence, was taken as a measure of the level of inhibition. Ten concentrations of compounds were tested in three- or fivefold dilutions. From the counts per minute, percentage of inhibition at highest concentration tested or IC50s for the compounds were calculated using GraFit 3, GraFit 4 or GraFit 5 (Erithacus Software Ltd.) software packages or a data evaluation macro for Excel based on XLFit Software (IDBS).

| SMILES | IC50 [nM] |
| --- | --- |
| COc1cc(C(=O)N2[C@@H](c3nccs3)[C@@H](c3cnccn3)C[C@@]2(CC(C)C)C(=O)O)ccc1C(C)(C)C (racemic) [Compound A, rel-(2S,4S,5R)-2-Isobutyl-1-(4-tert-butyl-3-methoxybenzoyl)-4-(pyrazin-2-yl)-5-(1,3-thiazol-2-yl)pyrrolidine-2-carboxylic acid, reference compound] | > 1000 |
| COc1cc(C(=O)N2[C@@H](c3nccs3)[C@@H](c3cnccn3)C[C@@]2(Cc2ccccn2)C(=O)O)ccc1C(C)(C)C (racemic) [Compound C, rel-(2R,4S,5R)-1-(4-tert-Butyl-3-methoxybenzoyl)-2-(pyridin-2-ylmethyl)-4-(pyrazin-2-yl)-5-(1,3-thiazol-2-yl)pyrrolidine-2-carboxylic acid, reference compound] | 150 to 1000 |
| COc1cc(C(=O)N2[C@@H](c3nccs3)[C@@H](c3cnccn3)C[C@@]2(Cc2c[nH]cn2)C(=O)O)ccc1C(C)(C)C (racemic) [Compound D, rel-(2R,4S,5R)-1-(4-tert-Butyl-3-methoxybenzoyl)-2-(1H-imidazol-4-yl-methyl)-4-(pyrazin-2-yl)-5-(1,3-thiazol-2-yl)-pyrrolidine-2-carboxylic acid, reference compound] | > 1000 |
| COc1cc(C(=O)N2[C@@H](c3cncs3)[C@@H](c3cnccn3)C[C@@]2(CCSC)C(=O)O)ccc1C(C)(C)C (racemic) [Compound E, rel-(2R,4S,5R)-1-(4-tert-Butyl-3-methoxybenzoyl)-2-(2-(methylthio)ethyl)-4-(pyrazin-2-yl)-5-(1,3-thiazol-5-yl)-pyrrolidine-2-carboxylic acid, reference compound] | > 1000 |
| COc1cc(C(=O)N2[C@@H](c3nccs3)[C@@H](c3cnccn3)C[C@@]2(CCS(C)(=O)=O)C(=O)O)ccc1C(C)(C)C (racemic) [Compound F, rel-(2R,4S,5R)-1-(4-tert-Butyl-3-methoxybenzoyl)-2-(2-(methylsulphonyl)ethyl)-4-pyrazin-2-yl-5-(1,3-thiazol-2-yl)-pyrrolidine-2-carboxylic acid, reference compound] | > 1000 |
| COc1cc(C(=O)N2[C@@H](c3nccs3)[C@@H](c3cnccn3)C[C@@]2(Cc2ccccc2)C(=O)O)ccc1C(C)(C)C (racemic) [Compound G, rel-(2R,4S,5R)-1-(4-tert-Butyl-3-methoxybenzoyl)-2-(phenylmethyl)-4-(pyrazin-2-yl)-5-(1,3-thiazol-2-yl)pyrrolidine-2-carboxylic acid, reference compound] | > 1000 |
| COc1cc(C(=O)N2[C@@H](c3nccs3)[C@@H](c3cnccn3)C[C@@]2(Cc2cscn2)C(=O)O)ccc1C(C)(C)C (racemic) [Example 1, rel-(2R,4S,5R)-1-(3-Methoxy-4-tert-butylbenzoyl)-4-(pyrazin-2-yl)-2-(1,3-thiazol-4-ylmethyl)-5-(1,3-thiazol-2-yl)pyrrolidine-2-carboxylic acid] | < 150 |
| COc1cc(C(=O)N2[C@@H](c3nccs3)[C@@H](c3cnccn3)C[C@@]2(Cc2nccs2)C(=O)O)ccc1C(C)(C)C (racemic) [Example 3, rel-(2R,4S,5R)-1-(3-Methoxy-4-tert-butylbenzoyl)-4-(pyrazin-2-yl)-2-(1,3-thiazol-2-ylmethyl)-5-(1,3-thiazol-2-yl)pyrrolidine-2-carboxylic acid] | < 150 |
| COc1cc(C(=O)N2[C@@H](c3ncc(C)s3)[C@@H](c3cnccn3)C[C@@]2(Cc2ccsn2)C(=O)O)ccc1C(C)(C)C (racemic) [Example 5, rel-(2R,4S,5R)-1-(3-Methoxy-4-tert-butylbenzoyl)-5-(5-methyl-1,3-thiazol-2-yl)-4-(pyrazin-2-yl)-2-(1,2-thiazol-3-ylmethyl)pyrrolidine-2-carboxylic acid] | < 150 |
| COc1cc(C(=O)N2[C@@H](c3nccs3)[C@@H](c3cnccn3)C[C@@]2(Cc2ccsn2)C(=O)O)ccc1C(C)(C)C (racemic) [Example 7, rel-(2R,4S,5R)-1-(3-Methoxy-4-tert-butylbenzoyl)-4-(pyrazin-2-yl)-2-(1,2-thiazol-3-ylmethyl)-5-(1,3-thiazol-2-yl)pyrrolidine-2-carboxylic acid] | < 150 |
| COc1cc(C(=O)N2[C@@H](c3ncc(C)s3)[C@@H](c3cnccn3)C[C@@]2(Cn2cccn2)C(=O)O)ccc1C(C)(C)C (racemic) [Example 9, rel-(2R,4S,5R)-1-(3-Methoxy-4-tert-butylbenzoyl)-5-(5-methyl-1,3-thiazol-2-yl)-4-(pyrazin-2-yl)-2-(1H-pyrazol-1-ylmethyl)pyrrolidine-2-carboxylic acid] | < 150 |
| COc1cc(C(=O)N2[C@@H](c3nccs3)[C@@H](c3cnccn3)C[C@@]2(Cn2cccn2)C(=O)O)ccc1C(C)(C)C (racemic) [Example 11, rel-(2R,4S,5R)-1-(3-Methoxy-4-tert-butylbenzoyl)-4-(pyrazin-2-yl)-2-(1H-pyrazol-1-ylmethyl)-5-(1,3-thiazol-2-yl)pyrrolidine-2-carboxylic acid] | < 150 |
| COc1cc(C(=O)N2[C@@H](c3ncc(C)s3)[C@@H](c3cnccn3)C[C@@]2(Cc2nccs2)C(=O)O)ccc1C(C)(C)C (racemic) [Example 13, rel-(2R,4S,5R)-1-(3-Methoxy-4-tert-butylbenzoyl)-5-(5-methyl-1,3-thiazol-2-yl)-4-(pyrazin-2-yl)-2-(1,3-thiazol-2-ylmethyl)pyrrolidine-2-carboxylic acid] | < 150 |
| COc1cc(C(=O)N2[C@@H](c3ncc(C)s3)[C@@H](c3cnccn3)C[C@@]2(Cc2cscn2)C(=O)O)ccc1C(C)(C)C (racemic) [Example 15, rel-(2R,4S,5R)-1-(3-Methoxy-4-tert-butylbenzoyl)-5-(5-methyl-1,3-thiazol-2-yl)-4-(pyrazin-2-yl)-2-(1,3-thiazol-4-ylmethyl)pyrrolidine-2-carboxylic acid] | < 150 |
| COc1cc(C(=O)N2[C@@H](c3nccs3)[C@@H](c3cnccn3)C[C@@]2(CC(C)C)C(=O)O)ccc1C(C)(C)C (single isomer, unassigned; enantiomer a) [Compound B, reference compound] | > 1000 |
| COc1cc(C(=O)N2[C@@H](c3nccs3)[C@@H](c3cnccn3)C[C@@]2(Cc2cscn2)C(=O)O)ccc1C(C)(C)C (single isomer, unassigned; enantiomer a) [Example 2] | < 150 |
| COc1cc(C(=O)N2[C@@H](c3nccs3)[C@@H](c3cnccn3)C[C@@]2(Cc2nccs2)C(=O)O)ccc1C(C)(C)C (single isomer, unassigned; enantiomer a) [Example 4] | < 150 |
| COc1cc(C(=O)N2[C@@H](c3ncc(C)s3)[C@@H](c3cnccn3)C[C@@]2(Cc2ccsn2)C(=O)O)ccc1C(C)(C)C (single isomer, unassigned; enantiomer a) [Example 6] | < 150 |
| COc1cc(C(=O)N2[C@@H](c3nccs3)[C@@H](c3cnccn3)C[C@@]2(Cc2ccsn2)C(=O)O)ccc1C(C)(C)C (single isomer, unassigned; enantiomer a) [Example 8] | < 150 |
| COc1cc(C(=O)N2[C@@H](c3ncc(C)s3)[C@@H](c3cnccn3)C[C@@]2(Cn2cccn2)C(=O)O)ccc1C(C)(C)C (single isomer, unassigned; enantiomer a) [Example 10] | < 150 |
| COc1cc(C(=O)N2[C@@H](c3nccs3)[C@@H](c3cnccn3)C[C@@]2(Cn2cccn2)C(=O)O)ccc1C(C)(C)C (single isomer, unassigned; enantiomer a) [Example 12] | < 150 |
| COc1cc(C(=O)N2[C@@H](c3ncc(C)s3)[C@@H](c3cnccn3)C[C@@]2(Cc2nccs2)C(=O)O)ccc1C(C)(C)C (single isomer, unassigned; enantiomer a) [Example 14] | < 150 |
